Assay type in all cases: in vivo
Assay [1] relates to Alopecurus myosuroides (ALOMY). The assay is described as follows: Pre-emergence herbicidal activity, glasshouse pot test. To be noted: Alopecurus myosuroides, 312 h; Rate 250 g/ha; pre-emergence spray; evaluated after 13 days; read-out: Pre-emergence activity ALOMY (100=total damage to plant; 0=no damage to plant). On the procedure: (§1) Seeds of a variety of test species were sown in standard soil in pots. After cultivation for one day (pre-emergence) or after 8 days cultivation (post-emergence) under controlled conditions in a glasshouse (at 24/16° C., day/night; 14 hours light; 65% humidity), the plants were sprayed with an aqueous spray solution derived from the formulation of the technical active ingredient in acetone/water (50:50) solution containing 0.5% Tween 20 (polyoxyethelyene sorbitan monolaurate, CAS RN 9005-64-5). The test plants were then grown in a glasshouse under controlled conditions in a glasshouse (at 24/16° C., day/night; 14 hours light; 65% humidity) and watered twice daily. After 13 days for pre and post-emergence, the test was evaluated (100=total damage to plant; 0=no damage to plant).
(§2) Lolium perenne (LOLPE), Alopecurus myosuroides (ALOMY), Echinochloa crus-galli (ECHCG), and Avena fatua (AVEFA).

For assay [2], the system named is Avena fatua (AVEFA). Described as above. To be noted: Avena fatua, 312 h; Rate 250 g/ha; pre-emergence spray; evaluated after 13 days; read-out: Pre-emergence activity AVEFA (100=total damage to plant; 0=no damage to plant). On the procedure: as §1, §2
Assay [3] deals with Echinochloa crus-galli (ECHCG). Described as above. Particulars: Echinochloa crus-galli, 312 h; Rate 250 g/ha; pre-emergence spray; evaluated after 13 days; read-out: Pre-emergence activity ECHCG (100=total damage to plant; 0=no damage to plant). As for the experimental part: as §1, §2
In assay [4] the test system is Lolium perenne (LOLPE). The description is as above. To be noted: Lolium perenne, 312 h; Rate 250 g/ha; pre-emergence spray; evaluated after 13 days; read-out: Pre-emergence activity LOLPE (100=total damage to plant; 0=no damage to plant). As for the experimental part: as §1, §2
Assay [5] deals with Alopecurus myosuroides (ALOMY). The assay can be described thus: Post-emergence herbicidal activity, glasshouse pot test. To be noted: Alopecurus myosuroides, 312 h, rate 250 g/ha, evaluated after 13 days, glasshouse, read-out: Post-emergence activity ALOMY (100=total damage to plant; 0=no damage to plant). On the procedure: as §1, §2
In assay [6] the test system is Avena fatua (AVEFA). Described as above. Particulars: Avena fatua, 312 h, rate 250 g/ha, evaluated after 13 days, glasshouse, read-out: Post-emergence activity AVEFA (100=total damage to plant; 0=no damage to plant). As for the experimental part: as §1, §2
Assay [7] concerns Echinochloa crus-galli (ECHCG). The description is as above. Particulars: Echinochloa crus-galli, 312 h, rate 250 g/ha, evaluated after 13 days, glasshouse, read-out: Post-emergence activity ECHCG (100=total damage to plant; 0=no damage to plant). On the procedure: as §1, §2
The test system of assay [8] is Lolium perenne (LOLPE). Described as above. Particulars: Lolium perenne, 312 h, rate 250 g/ha, evaluated after 13 days, glasshouse, read-out: Post-emergence activity LOLPE (100=total damage to plant; 0=no damage to plant). As for the experimental part: as §1, §2

Take `CCc1ccc(Oc2ccc(Cl)c(F)c2)cc1C1=C(O)[C@@H]2CC[C@](C)(C1=O)C2(C)C` (single isomer, unassigned) [Example A-93]: the pest or weed control at 250 g/ha came out at 60% in assay [1]; 60% in the assay on Avena fatua (AVEFA) [2]; 100% in assay [3]; 90% with Lolium perenne (LOLPE) [4]; 60% in assay [5]; 20% with Avena fatua (AVEFA) [6]. For the same compound, the pest or weed control at 250 g/ha is 50% in assay [7] and 20% in the assay with Lolium perenne (LOLPE) [8].

In the case of `CCc1ccc(Oc2ccc(Cl)cc2Cl)cc1C1=C(O)[C@@H]2CC[C@](C)(C1=O)C2(C)C` (single isomer, unassigned) [Example A-94], the pest or weed control at 250 g/ha in assay [1] was 40%; in the assay on Avena fatua (AVEFA) [2], 20%; in assay [3], 90%; in the assay on Lolium perenne (LOLPE) [4], 100%; in assay [5] it was 10%; with Avena fatua (AVEFA) [6], 0%. The values for the pest or weed control at 250 g/ha (in assay [7]; in the assay on Lolium perenne (LOLPE) [8]) were 40% and 20%, respectively.

Regarding `CCc1ccc(Oc2ccc(Cl)cc2F)cc1C1=C(O)[C@@H]2CC[C@](C)(C1=O)C2(C)C` (single isomer, unassigned) [Example A-95], the pest or weed control at 250 g/ha in assay [1] turned out to be 70%; in the assay on Avena fatua (AVEFA) [2], 80%; in assay [3], 90%; in the assay with Lolium perenne (LOLPE) [4] it was 90%; in assay [5] it was 60%; in the assay on Avena fatua (AVEFA) [6], 80%. Moreover, the pest or weed control at 250 g/ha turned out to be 80% in assay [7] and 50% with Lolium perenne (LOLPE) [8].

Consider `CCc1ccc(Oc2ccc(Cl)cc2)cc1C1=C(O)[C@@H]2CC[C@](C)(C1=O)C2(C)C` (single isomer, unassigned) [Example A-96], for which the pest or weed control at 250 g/ha is 70% in assay [1]; 40% with Avena fatua (AVEFA) [2]; 90% in assay [3]; 100% in the assay on Lolium perenne (LOLPE) [4]; 60% in assay [5]; 20% with Avena fatua (AVEFA) [6]. Also, the pest or weed control at 250 g/ha in assay [7] is 60%; with Lolium perenne (LOLPE) [8], 30%.

As for `CCc1ccc(Oc2ccc(Br)cc2)cc1C1=C(O)C(C)(C)OC(C)(C)C1=O` [Example A-8], the pest or weed control at 250 g/ha worked out at 60% in assay [1]; 10% in the assay with Avena fatua (AVEFA) [2]; 100% in assay [3]; 100% with Lolium perenne (LOLPE) [4]; 100% in assay [5]; 0% in the assay on Avena fatua (AVEFA) [6]. Also, the pest or weed control at 250 g/ha (in assay [7]; in the assay on Lolium perenne (LOLPE) [8]) was 100% throughout.

For the compound `CCc1ccc(Oc2ccc(Br)cc2Cl)cc1C1=C(O)C(C)(C)OC(C)(C)C1=O` [Example A-9], the pest or weed control at 250 g/ha was 60% in assay [1]; 30% with Avena fatua (AVEFA) [2]; 100% in assay [3]; 80% in the assay on Lolium perenne (LOLPE) [4]; 90% in assay [5]; 100% with Avena fatua (AVEFA) [6]. The pest or weed control at 250 g/ha was determined as 100% in assay [7] and 80% with Lolium perenne (LOLPE) [8].

As to `CCc1ccc(Oc2ccc(Br)c(Cl)c2)cc1C1=C(O)C(C)(C)OC(C)(C)C1=O` [Example A-10], the pest or weed control at 250 g/ha in assay [1] stood at 0%; in the assay on Avena fatua (AVEFA) [2], 20%; in assay [3] it was 90%; in the assay on Lolium perenne (LOLPE) [4], 30%; in assay [5], 100%; in the assay with Avena fatua (AVEFA) [6], 90%. Besides, the pest or weed control at 250 g/ha (in assay [7]; in the assay with Lolium perenne (LOLPE) [8]) was 100% each time.

Values taken from patent US8865623B2, “Herbicidally active cyclic diones and derivatives thereof, processes for their preparation, compositions, and method of controlling weeds” (Syngenta Limited, priority 2009, dated 2014).
